Reference: patent US20240057598A1, “USE OF 2-AMINO-3-METHYLHEXANOIC ACID AS PLANT IMMUNITY INDUCER” (NANJING AGRICULTURAL UNIVERSITY, priority 2020, published 2024)

Key:
ryegrass = test: Induced resistance of ryegrass to high temperature stress; assay type: in vivo; details: for Dry weight of overground part / Fresh weight of overground part / Heat injury index: 45° C. 12 h, 7 days recovery
Protocol: (§1) 2-amino-3-methylhexanoic acid was dissolved in distilled water and diluted with distilled water into solutions of 1 nM, 10 nM, 100 nM and 1,000 nM by gradient. A blank control was additionally set, and 0.02% Tween 20 was added as a surfactant. 4 groups of repetitions were set for each concentration, and a normal temperature blank control was set at the same time. Ryegrass seeds were weighed according to 0.8 g per pot, sowed in a pot with a diameter of 8.5 cm, and planted in a greenhouse at a temperature of 25° C., a humidity of 60%-70%, and a light intensity of 200 μmolm^−2s^−1 (12 h light/12 h dark). On the 8th day of the seedling stage, the ryegrass was sprayed with the 2-amino-3-methylhexanoic acid solutions on the leaves twice in 24 h. 24 h after the second treatment, the plants were transferred to a light incubator at a temperature of 45° C. for conducting high temperature stress treatment for 12 h, and then the plants were taken out and transferred to a greenhouse at a temperature of 25° C. for 7 days of recovery. The injured conditions of the plants were observed and counted, and the heat injury grade was calculated. […] After the counting, the fresh weight of the aboveground part of the plant was weighed, and then the aboveground part was baked in an 85° C. oven for 48 h to determine the dry weight.

tomato = test: Induced resistance of tomato to high temperature stress; assay type: in vivo
Protocol: as §1
Tomato seeds were sowed in small pots, and three tomato seedlings with the same growth condition were transplanted into one pot after emergence. The planting method and conditions were the same as above. When the tomato grew for 18 days in the seedling stage, the experiment was conducted. High temperature stress was conducted at 42° C. for 9 h, and the treatment method and subsequent statistical indexes were the same as those of the above.

Escherichia coli K-12 = details: cited from earlier work
[1] = 100 nM, compared with untreated control group
[2] = 10 nM, 42° C. 9 h, 7 days recovery
[3] = 100 nM, 42° C. 9 h, 7 days recovery
[4] = 1,000 nM, 42° C. 9 h, 7 days recovery

SMILES: CCCC(C)C(N)C(=O)O (stereo not drawn) [2-amino-3-methylhexanoic acid]
- Optimal use concentration to alleviate high temperature stress (ryegrass): 100 nM
- Dry weight of overground part (ryegrass; 1 nM): 0.4 ± 0.01bc g
- Fresh weight of overground part (ryegrass; 1 nM): 1.96 ± 0.19b g
- Heat injury index (ryegrass; 1 nM): 70%
- Dry weight of overground part (ryegrass; 10 nM): 0.46 ± 0.04ab g
- Fresh weight of overground part (ryegrass; 10 nM): 2.14 ± 0.095 g
- Heat injury index (ryegrass; 10 nM): 60%
- Dry weight of overground part (ryegrass; 100 nM): 0.44 ± 0.02nb g
- Fresh weight of overground part (ryegrass; 100 nM): 2.60 ± 0.02b g
- Heat injury index (ryegrass; 100 nM): 30%
- Increase of dry weight of aboveground part (ryegrass; [1]): 25%
- Increase of fresh weight of aboveground part (ryegrass; [1]): 162%
- Dry weight of overground part (ryegrass; 1,000 nM): 0.45 ± 0.01ab g
- Fresh weight of overground part (ryegrass; 1,000 nM): 2.42 ± 0.15b g
- Heat injury index (ryegrass; 1,000 nM): 30%
- Optimum concentration inducing resistance to high temperature stress (tomato): 1,000 nM
- Dry weight of overground part (tomato; [2]): 0.05 ± 0.01b g
- Heat injury index (tomato; [2]): 95
- Dry weight of overground part (tomato; [3]): 0.06 ± 0.02 g·h
- Fresh weight of overground part (tomato; [3]): 0.61 ± 0.16abc g
- Heat injury index (tomato; [3]): 90
- Dry weight of overground part (tomato; [4]): 0.08 ± 0.003ab g
- Heat injury index (tomato; [4]): 60
- Inhibitory effect (Escherichia coli K-12): obvious inhibitory effect
